Columns and labels:
[1] = system: PAEC; experiment: MTT proliferation assay in PAEC; format: cell-based, human; details: Enzastaurin 0.5-50 M as printed
Description: Assays were conducted according to the manufacturer's instructions and as previously described(E1,E9).
Quantified area=% of cells that show nuclear γH2AX staining quantified with automated software (white nuclei=positive stain, grey nuclei=background stain). […] (n=3). […] (n=3).
As a cumulative viability measurement, we quantified caspase3/7 activity, using the luminescent Caspase-Glo®3/7 assay(36) and DNA damage, using histone H2AX phosphorylation by immunofluorescence and quantification as nuclear area staining (%) by confocal microscopy(34, 35, 37). […] PAEC proliferation was assessed via an MTT proliferation assay and hemocytometer cell counts(36).

[2] = system: FHIT−/− C57BL/6 mice in hypoxia; experiment: Hypoxia-induced PH in Fhit−/− mice; format: in vivo, mouse
Description: Experimental PAH will be assessed based on Right Ventricular (RV) Systolic Pressure measurements through right jugular vein catheterization and RV hypertrophy was assessed by the weight ratio of the RV to left ventricle+septum. Vessel loss and muscularization of lung vessels will be visualized by MOVAT pentachrome stain or IF staining with αSMA and avWF antibodies.
Fhit homozygous (−/−) mice were obtained from Kay F. Huebner (Ohio State University). Bmpr2+/− mice were a gift from Marlene Rabinovitch (Stanford University). Adult wildtype C57BL/6 mice, Bmpr2+/− or Fhit−/− mice at 8-10 weeks of age were housed in chronic hypoxia (10% O2) for 3 weeks, followed by a recovery period of 4 weeks in normoxia (21% O2). […] Development of experimental PH was induced in adult Sprague Dawley rats (8 weeks old, 180-220 g) through a subcutaneous dose of the VEGFR-2 inhibitor SUGEN5416 (20 mg/kg body weight), followed by exposure to chronic hypoxia (10% O2) for 3 weeks and normoxia for 5 weeks (21% O2), as previously described(12). […] Right Ventricular (RV) Systolic Pressure was measured through right jugular vein catheterization, and RV hypertrophy (RVH) was assessed by the weight ratio of the RV to left ventricle and septum (LV+S).
FIGS. 23B-23C, ΔΔCt analysis of mRNA expression in lung tissue.

[3] = system: miR27a; experiment: Relative miR27a expression in PAECs (qPCR); format: cell-based, human; details: 15 μM Enzastaurin 24 hours
[4] = C57BL/6 FHIT−/− mice, 3 weeks hypoxia, 5 mg/kg daily by osmotic pump, method in future tense
[5] = Fhit−/− mice, hypoxia, 5 mg/kg/day via mini osmotic pump

Cn1cc(C2=C(c3cn(C4CCN(Cc5ccccn5)CC4)c4ccccc34)C(=O)NC2=O)c2ccccc21 [Enzastaurin, 3-(1-methyl-1H-indol-3-yl)-4-[1-[1-(pyridin-2-ylmethyl)piperidin-4-yl]-1H-indol-3-yl]-1H-pyrrole-2,5-dione]
PAEC proliferation (MTT) [1]: no increase in PAEC proliferation was detected
FHIT levels (FIG. 5C) [2, 4]: fails to increase FHIT levels
PKC levels (FIG. 5C) [2, 4]: effectively downregulating PKC levels
Pulmonary hypertension development (FIG. 5C) [2, 4]: does not protect from pulmonary hypertension development
BMPR2 expression in whole lung tissue [2, 5]: increased
FHIT mRNA expression in lung tissue [2, 5]: unmeasurably low
ID1 expression in whole lung tissue [2, 5]: increased
PH [2, 5]: improved PH
RVSP ([2]; male FHIT−/− mice, 3 weeks hypoxia, 5 mg/kg by mini-osmotic pump, vs Sham control): protects from increased RVSP
siFHIT-mediated increase in miR27a expression [3]: inhibited
